The values below come from US6107312A, “Thiopyridines for use in the control of helicobacter bacteria” (BYK Gulden Lomberg Chemische Fabrik GmbH, priority 1994, dated 2000).

In brackets after ≈: the same amount, converted by molar mass.

For the assay, the system named is Helicobacter pylori. Briefly: activity against Helicobacter pylori (method of Iwahi et al., Columbia agar, growth period of 4 days). The format is cell-based. Conditions: Columbia agar (Oxoid); for MIC50: 96 h, read-out: Approximate MIC50.

As a reminder, the MIC50 is the lowest concentration that inhibits either 50% of growth or 50% of the strains tested, depending on the study. Consider `Cc1c(SCc2ccco2)ccnc1CSc1nc2ccccc2n1S(C)(=O)=O` [Compound 10, 2-{[[4-(2-Furylmethylthio)-3-methyl-2-pyridinyl]methyl]thio}-1-methylsulfonyl-benzimidazole], for which the MIC50 was roughly 0.5 µg/mL (≈ 1.12 µM). Still for that read-out and setting: for `CC(=O)n1c(SCc2nccc(SCc3ccco3)c2C)nc2ccccc21` [Compound 7, 1-Acetyl-2-{[[4-(2-furylmethylthio)-3-methyl-2-pyridinyl]methyl]thio}benzimidazole] the value was roughly 0.5 µg/mL (≈ 1.22 µM); for `Cc1c(SCc2ccco2)ccnc1CSc1nc2cccnc2[nH]1` [Compound 1, 2-{[[4-(2-Furylmethylthio)-3-methyl-2-pyridinyl]methyl]thio}-1H-imidazo-[2,3-b]-pyridine], roughly 0.1 µg/mL (≈ 0.271 µM). For `CCCC(=O)n1c(SCc2nccc(SCc3ccco3)c2C)nc2ccccc21` [Compound 9, 1-n-Butyroyl-2-{[[4-(2-furylmethylthio)-3-methyl-2-pyridinyl]methyl]thio}benzimidazole], the “Approximate MIC50” value is roughly 0.1 µg/mL. For `C=CC(=O)n1c(SCc2nccc(SCc3ccco3)c2C)nc2ccccc21` [Compound 8, 1-Acryloyl-2-{[[4-(2-furylmethylthio)-3-methyl-2-pyridinyl]methyl]thio}benzimidazole], the MIC50 is roughly 0.1 µg/mL (≈ 0.237 µM).
